Read-outs that look alike come from different tables or passages of the source.
Experiments:
TbPTR1 = molecular target: T1, TbPTR1 (Trypanosoma brucei brucei, UniProt O76290); assay: TbPTR1 indirect (cytochrome c-coupled) enzyme assay; assay type: biochemical; conditions: for IC50: indirect assay, triplicate, SD within ± 10% of the value
T1 sequence (O76290 1-268): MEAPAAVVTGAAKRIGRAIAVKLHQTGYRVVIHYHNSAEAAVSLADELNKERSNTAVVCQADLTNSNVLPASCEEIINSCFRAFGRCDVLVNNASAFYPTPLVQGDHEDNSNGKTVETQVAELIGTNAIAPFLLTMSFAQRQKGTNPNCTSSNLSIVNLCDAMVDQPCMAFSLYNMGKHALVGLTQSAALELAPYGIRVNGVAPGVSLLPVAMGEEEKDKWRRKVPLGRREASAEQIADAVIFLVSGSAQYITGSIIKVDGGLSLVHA
Procedure: The in vitro assays used in the current study were based on those reported in the literature. As PTR1 enzymes use dihydrobiopterin (H2B) as a substrate and also require NADPH for the reaction, the reduction of H2B to tetrahydrobiopterin by PTR1 is nonenzymatically linked with the reduction of cytochrome c in this assay, which is detected at 550 nm. The formation of cyt c Fe^2+ results in an increase in the photometric readout. TbPTR1 and LmPTR1 activity was assayed in a buffer containing 20 mM sodium citrate (pH 6.0). The final reaction mixture contained the test compound at a range of concentrations and TbPTR1/LmPTR1 (6.0 nM/12 nM), H2B (0.3 μM/3 μM), cytochrome c (100 μM/100 μM), and NADPH (500 μM/500 μM). The final assay volume was 50 μL in 384-well clear plates (Greiner Bio-One, 781101). Compound screening was performed by the addition of the compound to the assay plates (in 100% DMSO), followed by the addition of 45 μL Reaction Mix (enzyme, H2B cytochrome c in 20 mM sodium citrate buffer). A pre-read was made at 550 nm using an EnVision Multilabel Reader 2103 (PerkinElmer Inc., US), followed by incubation of the assay plates at 30 °C for 10 min. The reaction was initiated by the addition of 5 μL of NADPH (5 mM in ultrapure water) followed by kinetically reading the assay plates at 550 nm using the EnVision Multilabel Reader at 10, 20, 30, 40, and 50 min. The slope of each assay well was calculated. The screening data were analyzed using ActivityBase (IDBS), and for outlier elimination in the control wells, the 3-σ method was applied. Based on the slope, the data were normalized to the positive control methotrexate for TbPTR1/LmPTR1 (1 μM/50 μM, yielding 100% inhibition) and negative controls (1% DMSO, yielding 0% inhibition), and % inhibition was calculated for all samples. The measurement at time 0 min was used to flag optically interfering samples. Each compound was tested in triplicate, and the pIC50 value, standard deviation, Hill slope, and minimum and maximum signals for each dose–response curve were obtained using a 4-parameter logistic fit in the XE module of Activity Base (IDBS), as also reported previously. ,

[1] = Cytotoxicity assay (MTT) on THP-1-derived macrophages; assay type: cell-based, Human; conditions: human, THP-1-derived macrophages
Procedure: (§1) Human leukemia cell line THP-1 (ATCC TIB202) cells were cultured in RPMI-1640 medium supplemented with 10% heat-inactivated fetal bovine serum (FBS), 2 mM L-glutamine, 100 IU/mL penicillin/streptomycin, and 20 mM HEPES. The cell line was maintained in a humidified incubator at 37 °C with 5% CO2. Subcultures were performed every 3 days in 20 mL of media at a concentration of 2 × 10^5 cells/mL in a T75 flask. All cell culture reagents were purchased from Lonza Bioscience (Morrisville, NC).
(§2) The cytotoxicity of the compounds on THP-1-derived macrophages was assessed using the colorimetric MTT assay (3-(4,5-dimethylthiazol-2-yl)-2,5-diphenyl tetrazolium bromide) as described elsewhere. THP-1 cells were suspended in RPMI complete medium at a density of 1 × 10^6 cells/mL, and 100 μL/well was seeded in a 96-well plate. The cells were differentiated into macrophages by adding 40 ng/mL of phorbol-myristate 13-acetate (PMA, Sigma, Saint Louis, MI, USA) for 24 h, followed by replacement with fresh medium for another 24 h. Subsequently, the cells were incubated with 100 μL of compounds, ranging from 100 to 12.5 μM, diluted in RPMI complete medium. Each condition was tested in triplicate. After 72 h of incubation at 37 °C with 5% CO2, the medium was removed, and 200 μL of 0.5 mg/mL MTT solution diluted in RPMI was added. The plates were incubated for an additional 4 h, after which 160 μL of the media was removed and replaced with 160 μL of 2-propanol. Absorbance was read at 570 nm using a Synergy 2 Multi-Mode Reader (Biotek, Winooski, VT, USA). Cytotoxicity was evaluated by presenting the CC50 (the concentration of the drug that reduces cell viability by 50%) interval or by determining the CC50 value through nonlinear regression analysis using GraphPad Prism version 8.1.1 for Windows (GraphPad Software, San Diego, CA, USA). Results represent the average of at least three independent experiments.

[2] = test system: THP-1-derived macrophages; assay: as above; assay type: cell-based, Human; conditions: THP-1 CC50 vs T. brucei EC50
Procedure: as §1, §2

CYP2C19 = molecular target: T2, CYP2C19 (Homo sapiens, UniProt P33261); assay: Cytochrome P450 assay (P450-Glo), isoform 2C19; assay type: in vitro ADME
T2 construct: purchased Promega; host or cells: baculovirus-infected insect cells
T2 sequence (P33261 whole entry, canonical isoform): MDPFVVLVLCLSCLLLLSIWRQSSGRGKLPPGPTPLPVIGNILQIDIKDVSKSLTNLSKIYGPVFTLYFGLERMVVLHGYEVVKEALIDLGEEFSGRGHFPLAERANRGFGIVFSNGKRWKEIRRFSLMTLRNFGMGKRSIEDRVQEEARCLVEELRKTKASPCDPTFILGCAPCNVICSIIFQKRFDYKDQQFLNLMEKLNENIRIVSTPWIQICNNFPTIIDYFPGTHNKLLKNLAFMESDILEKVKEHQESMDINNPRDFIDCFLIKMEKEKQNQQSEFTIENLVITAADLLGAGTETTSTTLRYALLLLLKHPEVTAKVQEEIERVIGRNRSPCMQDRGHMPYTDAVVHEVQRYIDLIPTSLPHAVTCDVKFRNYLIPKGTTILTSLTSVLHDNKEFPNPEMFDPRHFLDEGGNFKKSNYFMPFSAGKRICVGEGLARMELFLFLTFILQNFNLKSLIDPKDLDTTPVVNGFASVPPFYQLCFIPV
From the text: 3A4. The Promega P450-Glo assay platform was used with microsomal preparations of
cytochrome P450s from baculovirus-infected insect cells. […]

[3] = lower limit of CC50 interval, read-out: THP1 CC50 lower limit
[4] = upper limit of CC50 interval, read-out: THP1 CC50 upper limit
[5] = cytotoxic concentration for THP1 cells, read-out: CC50 THP1

Q: For Nc1nc2ccc(C(=O)NCCc3ccc(Cl)c(Cl)c3)cc2s1 [Compound 1a, 2-amino-N-(3,4-dichlorophenethyl)benzo[d]thiazole-6-carboxamide], which IC50 (TbPTR1) is on record?
A: 7.6 µM

Q: And the CC50 at 72 h [1, 3]?
A: > 50 µM

Q: And the CC50 at 72 h [1, 4]?
A: < 100 µM

Q: And the “Selectivity index toward THP-1 cells” value [2]?
A: over 16

Q: And the IC50 (CYP2C19; read-out: CYP 2C19 IC50)?
A: 8.5 µM

Q: Which results are given for Nc1nc2ccc(C(=O)N(CCc3ccc(Cl)c(Cl)c3)C3CC3)cc2s1 [Compound 1b, 2-amino-N-cyclopropyl-N-(3,4-dichlorophenethyl)benzo[d]thiazole-6-carboxamide]?
A: IC50 (TbPTR1): 17.1 µM; CC50 at 72 h [1, 5]: 25 to 50 µM; CC50 at 72 h [1, 3]: > 25 µM; CC50 at 72 h [1, 4]: < 50 µM; Selectivity index toward THP-1 cells [2]: 5−10; IC50 (CYP2C19; read-out: CYP 2C19 IC50): 4.7 µM

Q: For Nc1nc2ccc(C(=O)N(Cc3ccc(Cl)c(Cl)c3)C3CC3)cc2s1 [Compound 1c, 2-amino-N-cyclopropyl-N-(3,4-dichlorobenzyl)benzo[d]thiazole-6-carboxamide], which IC50 (TbPTR1) is on record?
A: 71.6 µM

Q: What about the CC50 at 72 h [1, 5] of the same molecule?
A: > 100 µM

Q: What about the IC50 (CYP2C19; read-out: CYP 2C19 IC50) of the same molecule?
A: 2.9 µM

Q: With Nc1nc2ccc(CN(Cc3ccc(Cl)c(Cl)c3)C3CC3)cc2s1 [Compound 1d, 6-((cyclopropyl(3,4-dichlorobenzyl)amino)methyl)benzo[_d_]thiazol-2-amine] as the molecule, how does the IC50 (TbPTR1) read?
A: 3.3 µM

Q: What about the CC50 at 72 h [1, 5] of the same molecule?
A: 25 to 50 µM

Q: And the CC50 at 72 h [1, 3]?
A: > 25 µM

Q: What about the CC50 at 72 h [1, 4] of the same molecule?
A: < 50 µM

Q: What about the IC50 (CYP2C19; read-out: CYP 2C19 IC50) of the same molecule?
A: 1.2 µM

Q: For Nc1nc2ccc(C(=O)N(CCc3ccc(Cl)c(Cl)c3)c3ccccc3)cc2s1 [Compound 1e, 2-amino-N-(3,4-dichlorophenethyl)-N-phenylbenzo[d]thiazole-6-carboxamide], which inhibition at 50 µM (TbPTR1; at 50 μM) is on record?
A: 18 ± 1%

Q: And the CC50 at 72 h [1, 5]?
A: > 100 µM

Q: And the activity at 10 µM (CYP2C19; human, at 10 µM compound concentration, read-out: CYP 2C19 % residual activity)?
A: 31.1%

Q: Which IC50 (TbPTR1) does the source give for Nc1nc2ccc(C(=O)NCCc3ccccc3)cc2s1 [Compound 2a, 2-amino-N-phenethylbenzo[d]thiazole-6-carboxamide] here?
A: 14.5 µM

Q: What about the CC50 at 72 h [1, 5] of the same molecule?
A: > 100 µM

Q: And the IC50 (CYP2C19; read-out: CYP 2C19 IC50)?
A: 25.6 µM

Q: Which results are given for Nc1nc2ccc(C(=O)NCCc3cccc(Cl)c3)cc2s1 [Compound 2b, 2-amino-N-(3-chlorophenethyl)benzo[d]thiazole-6-carboxamide]?
A: IC50 (TbPTR1): 3.9 µM; CC50 at 72 h [1, 3]: > 50 µM; CC50 at 72 h [1, 4]: < 100 µM; IC50 (CYP2C19): 6.3 µM

Q: For Nc1nc2ccc(C(=O)NCCc3ccc(Cl)cc3)cc2s1 [Compound 2c, 2-amino-N-(4-chlorophenethyl)benzo[d]thiazole-6-carboxamide], which IC50 (TbPTR1) is on record?
A: 4.8 µM

Q: What about the CC50 at 72 h [1, 3] of the same molecule?
A: > 50 µM

Q: And the CC50 at 72 h [1, 4]?
A: < 100 µM

Q: And the IC50 (CYP2C19; read-out: CYP 2C19 IC50)?
A: 4.2 µM

Q: Which results are given for Nc1nc2ccc(C(=O)NCCc3cccc(Br)c3)cc2s1 [Compound 2d, 2-amino-N-(3-bromophenethyl)benzo[d]thiazole-6-carboxamide]?
A: IC50 (TbPTR1): 2.4 µM; CC50 at 72 h [1, 3]: > 50 µM; CC50 at 72 h [1, 4]: < 100 µM; IC50 (CYP2C19; read-out: CYP 2C19 IC50): 2.9 µM

Q: Which results are given for Nc1nc2ccc(C(=O)NCCc3ccc(Br)cc3)cc2s1 [Compound 2e, 2-amino-N-(4-bromophenethyl)benzo[d]thiazole-6-carboxamide]?
A: IC50 (TbPTR1): 2.9 µM; CC50 at 72 h [1, 3]: > 25 µM; CC50 at 72 h [1, 4]: < 50 µM; IC50 (CYP2C19; read-out: CYP 2C19 IC50): 2.5 µM

Q: Which results are given for Nc1nc2ccccc2n1Cc1ccc(Cl)c(Cl)c1 [I, 1-(3,4-dichlorobenzyl)-1H-benzimidazol-2-amine, reference compound]?
A: IC50 (TbPTR1): 0.39 µM; CC50 at 72 h [1, 5]: 8 µM; IC50 (CYP2C19; read-out: CYP 2C19 IC50): 0.3 µM

From paper PMC12516686, “Design of 2‑Aminobenzothiazole Derivatives Targeting Trypanosomatid PTR1 by a Multidisciplinary Fragment Hybridization Approach” (Journal of Medicinal Chemistry, 2025)
